Data: patent US20220213030A1, “AMINOGUANIDINE HYDRAZONES AS RETROMER STABILIZERS USEFUL FOR TREATING NEUROLOGICAL DISEASES” (OSPEDALE SAN RAFFAELE SRL, priority 2019, published 2022)

Key:
[1] = test system: poly-ubiquitinated proteins; test: Poly-ubiquitinated proteins in lumbar spinal cord of G93A mice; assay type: in vivo, mouse; conditions: 10 mg/kg, day 100
Excerpt: (§1) Ubiquitinated inclusions accumulate in MNs of sALS and fALS patients and in lumbar SCs of ALS mice (Kabashi 2001). High levels of ubiquitinated proteins may represent an overwhelmed response of MNs to protein misfolding and aggregation, as well as a reduction of lysosome functionality. We characterized poly-ubiquitinated proteins in lumbar SCs protein extracts by 10% denaturating PAGE. We included in our experiments protein extracts from Neuro2a cells treated with the proteasome inhibitor Bortezomib (BTZ), able to increase poly-ubiquitination, as an experimental control (FIG. 13A). […] We next scored ubiquitin MFI levels in ventral horn MNs of G93A mice. […] As previously observed in Neuro2a cells, the overexpression of G93A plasmids affects the Golgi apparatus, therefore we asked whether similar alterations can occur in G93A mice by labeling lumbar sections for the cis-Golgi matrix protein GM130.
Lumbar spinal cords were dissected from saline perfused mice and rapidly homogenized in the following lysis buffer: Tris-HCl 10 mM pH 8, EDTA pH 8 1 mM, NaCl 100 mM, NP40 1% and protease inhibitor cocktail (Sigma). […] Protein concentrations were measured by BCA protein assay kit (Thermofisher) according to the manufacturer's recommendations. […] Quantifications were done using the Image Lab 6.0.1 software (Bio-Rad). […]

Golgi apparatus (GM130) = test: GM130 Golgi labelling in MNs of G93A mice; assay type: in vivo, mouse; conditions: 10 mg/kg, day 100
Excerpt: as §1
Sections from mice (frozen cryo sections) or glass covers containing cells were washed three times in PBS 1× (Lonza, 5 min each), and incubated in the following blocking mix: PBS 1×/FBS 10% (Invitrogen), BSA 1 mg/mL (Sigma), TritonX100 0.1% (Sigma), for 1 h at room temperature. Antibodies were diluted in blocking mix and incubated at +4° C. overnight according manufacturer's instructions. […]

[2] = test system: Neuro2a cells transfected with G93A plasmids; test: LDH-Glo cytotoxicity assay in G93A-transfected Neuro2a; assay type: cell-based, mouse; conditions: 10 μM
Experimental: We next assayed cytotoxicity by measuring lactate dehydrogenase (LDH) release with a LDH-Glo™ cytotoxicity assay. Cells were treated with plasmids encoding G93A and the Sh56-RNAi sequence with or without compound 2a, while supernatants were used to measure LDH contents. Overexpression of G93A increased the release of LDH by Neuro2a cells, when compared with cells transfected with LacZ-encoding plasmids or with LacZ+Sh56 plasmids (FIG. 3E). […] On the other hand, LDH release increased when cells received G93A plasmids along with Sh56 plasmids.
LDH cytotoxicity was run on 96 well plates using LDH-Glo™ Cytotoxicity Assay (Promega). Briefly, Neuro2a cells were transfected with plasmids encoding pCMV-LacZ; pcDNA3.1(+)SOD1G93A with or without VPS35 short interfering plasmids (Sh56) or compound 2a (10 μM). After 48 hours, 5 μl of supernatants were 100 fold diluted in LDH storage buffer (Tris-HCl 200 mM, 10% Glycerol, 1% BSA, Sigma-Aldrich) and used to determine LDH, according to manufacturer's recommendations. Maximum LDH Release Control was obtained lysing untreated Neuro2a cells with 2 μL of 10% Triton X-100 (Sigma-Aldrich). In each experiment we calculated % Cytotoxicity=(Exp.LDH Release-Medium Background)/(Max LDH Release Control-Medium Background), and we run parallel positive controls treating cells with 200 μM H2O2.

## N=C(N)NN=Cc1cccc(C=NNC(=N)N)c1 [Compound 2a, 1,3-Bis-amino guanidine phenyl hydrazone]
[1]
  MFI levels of ubiquitin fluorescence in ventral horn MNs: vehicle-treated G93A MNs were higher than levels scored in compound 2a-treated G93A mice
  poly-ubiquitination (WB densitometry): substantially reduced
Golgi apparatus (GM130)
  reduction of GM130-covered areas in MNs: substantially reverted
[2]; cells transfected with G93A plasmids and Sh56 plasmids
  LDH release: high release of LDH was observed
[2]; cells transfected with G93A plasmids, 48 hours
  LDH release: significantly reduced LDH release
